Patent publication US20090036448A1, “PYRIMIDINE DERIVATIVES AND METHODS OF TREATMENT RELATED TO THE USE THEREOF” (TAISHO PHARMECUTICAL CO., LTD., priority 2004, published 2009)

What follows are compounds tested against MCH receptor (Homo sapiens, UniProt Q99705) (assay: Receptor binding assay with Radiolabelled MCH Ligand). Details: class by percent of control at 10^-7 M or IC50.
Set-up: expressed in transfected cells; host or cells: 293 cells (human kidney, ATCC), transient transfection; crude membranes
Excerpt: In addition to the methods described herein, another means for evaluating a test compound is by determining binding affinities to the MCH receptor. This type of assay generally requires a radiolabelled ligand to the MCH receptor. Absent the use of known ligands for the MCH receptor and radiolabels thereof, compounds of Formula (I) can be labelled with a radioisotope and used in an assay for evaluating the affinity of a test compound to the MCH receptor.
A radiolabelled MCH compound of Formula (I) can be used in a screening assay to identify/evaluate compounds. In general terms, a newly synthesized or identified compound (i.e., test compound) can be evaluated for its ability to reduce binding of the “radiolabelled compound of Formula (I)” to the MCH receptor. Accordingly, the ability to compete with the “radio-labelled compound of Formula (I)” or Radiolabelled MCH Ligand for the binding to the MCH receptor directly correlates to its binding affinity of the test compound to the MCH receptor.
293 cells (human kidney, ATCC), transiently transfected with 10 μg human MCH receptor and 60 μl Lipofectamine (per 15-cm dish), are grown in the dish for 24 hours (75% confluency) with a media change and removed with 10 mL/dish of Hepes-EDTA buffer (20 mM Hepes+10 mM EDTA, pH 7.4). The cells are then centrifuged in a Beckman Coulter centrifuge for 20 minutes, 17,000 rpm (JA-25.50 rotor). Subsequently, the pellet is resuspended in 20 mM Hepes+1 mM EDTA, pH 7.4 and homogenized with a 50-mL Dounce homogenizer and again centrifuged. After removing the supernatant, the pellets can be stored at −80° C., until used in binding assay. When used in the assay, membranes are thawed on ice for 20 minutes and then 10 mL of incubation buffer (20 mM Hepes, 1 mM MgCl2, 100 mM NaCl, pH 7.4) added. The membranes are then vortexed to resuspend the crude membrane pellet and homogenized with a Brinkmann PT-3100 Polytron homogenizer for 15 seconds at setting 6. The concentration of membrane protein is determined using the BRL Bradford protein assay.
For total binding, a total volume of 50 ul of appropriately diluted membranes (diluted in assay buffer containing 50 mM Tris HCl (pH 7.4), 1 mM MgCl2, and 1 mM EDTA; 5-50 ug protein) is added to 96-well polyproylene microtiter plates followed by addition of 100 μl of assay buffer and 50 μl of Radiolabelled MCH Ligand. For nonspecific binding, 50 μl of assay buffer is added instead of 100 μl and an additional 50 μl of 10 uM cold MCH is added before 50 μl of Radiolabelled MCH Ligand is added. Plates are then incubated at room temperature for 60-120 minutes. The binding reaction is terminated by filtering assay plates through a Microplate Devices GF/C Unifilter filtration plate with a Brandell 96-well plate harvester followed by washing with cold 50 mM Tris HCl, pH 7.4 containing 0.9% NaCl. Then, the bottom of the filtration plate are sealed, 50 ul of Optiphase Supermix is added to each well, the top of the plates are sealed, and plates are counted in a Trilux MicroBeta scintillation counter. For compound competition studies, instead of adding 100 μl of assay buffer, 100 μl of appropriately diluted test compound is added to appropriate wells followed by addition of 50 μl of Radiolabelled MCH Ligand.
The test compounds are initially assayed at 1 and 0.1 μM and then at a range of concentrations chosen such that the middle dose would cause about 50% inhibition of a Radiolabelled MCH Ligand binding (i.e., IC50). Specific binding in the absence of test compound (BO) is the difference of total binding (BT) minus non-specific binding (NSB) and similarly specific binding (in the presence of test compound) (B) is the difference of displacement binding (BD) minus non-specific binding (NSB). IC50 is determined from an inhibition response curve, logit-log plot of % B/BO vs. concentration of test compound.
Ki is calculated by the Cheng and Prustoff transformation: […]

Sequence of MCH receptor (Q99705 whole entry): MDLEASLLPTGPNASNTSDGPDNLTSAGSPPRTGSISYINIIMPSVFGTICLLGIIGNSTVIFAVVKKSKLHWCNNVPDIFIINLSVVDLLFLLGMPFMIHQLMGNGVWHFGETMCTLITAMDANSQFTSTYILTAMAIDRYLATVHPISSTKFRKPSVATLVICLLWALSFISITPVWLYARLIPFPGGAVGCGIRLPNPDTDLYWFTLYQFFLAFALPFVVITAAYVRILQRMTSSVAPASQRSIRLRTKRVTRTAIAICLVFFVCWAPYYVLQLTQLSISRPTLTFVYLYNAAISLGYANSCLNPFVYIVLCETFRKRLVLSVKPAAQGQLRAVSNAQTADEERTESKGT

| Structure (SMILES) | class |
| --- | --- |
| Cc1ccc(C(=O)CC(Sc2ccc(Cl)cc2)C(=O)N[C@H]2CC[C@@H](Nc3cc(N(C)C)nc(C)n3)CC2)cc1 (relative stereo) [compound 310] | 3 (Class 3: The value of percent of control at 10^−7 M was more than 60% or the value of IC50 was more than 200 nM.) |
| Cc1nc(N[C@H]2CC[C@@H](NC(=O)COc3ccc(C(C)(C)C)cc3)CC2)cc(N(C)C)n1 [compound 255] | 3 (Class 3: The value of percent of control at 10^−7 M was more than 60% or the value of IC50 was more than 200 nM.) |
| Cc1nc(N[C@H]2CC[C@@H](NS(=O)(=O)c3ccc(-c4cc(C(F)(F)F)nn4C)s3)CC2)cc(N(C)C)n1 [compound 515] | 3 (Class 3: The value of percent of control at 10^−7 M was more than 60% or the value of IC50 was more than 200 nM.) |
| CCOC(=O)c1c(S(=O)(=O)N[C@H]2CC[C@@H](Nc3cc(N(C)C)nc(C)n3)CC2)c(-c2ccc(Cl)cc2)n(-c2ccccc2)c1C [compound 514] | 3 (Class 3: The value of percent of control at 10^−7 M was more than 60% or the value of IC50 was more than 200 nM.) |
| COc1ccc(CN[C@H]2CC[C@@H](Nc3cc(N(C)C)nc(C)n3)CC2)cc1OC [compound 370] | 3 (Class 3: The value of percent of control at 10^−7 M was more than 60% or the value of IC50 was more than 200 nM.) |
| Cc1nc(N[C@H]2CC[C@@H](NC(=O)C(C(=O)OCc3ccccc3)c3ccccc3)CC2)cc(N(C)C)n1 (relative stereo) [compound 321] | 3 (Class 3: The value of percent of control at 10^−7 M was more than 60% or the value of IC50 was more than 200 nM.) |
| COc1cc(COC(=O)N[C@H]2CC[C@@H](Nc3cc(N(C)C)nc(C)n3)CC2)c([N+](=O)[O-])cc1OC [compound 453] | 3 (Class 3: The value of percent of control at 10^−7 M was more than 60% or the value of IC50 was more than 200 nM.) |
| Cc1nc(N[C@H]2CC[C@@H](NS(=O)(=O)c3cccc([N+](=O)[O-])c3)CC2)cc(N(C)C)n1 [compound 504] | 3 (Class 3: The value of percent of control at 10^−7 M was more than 60% or the value of IC50 was more than 200 nM.) |
| Cc1cc(C)c(C(=O)C(=O)N[C@H]2CC[C@@H](Nc3cc(N(C)C)nc(C)n3)CC2)c(C)c1 [compound 350] | 3 (Class 3: The value of percent of control at 10^−7 M was more than 60% or the value of IC50 was more than 200 nM.) |
| Cc1nc(N[C@H]2CC[C@@H](NC(=O)CC3CCCCC3)CC2)cc(N(C)C)n1 [compound 279] | 3 (Class 3: The value of percent of control at 10^−7 M was more than 60% or the value of IC50 was more than 200 nM.) |
| Cc1nc(N[C@H]2CC[C@@H](NC(=O)c3ccc4c(c3)C(=O)c3ccccc3C4=O)CC2)cc(N(C)C)n1 [compound 198] | 3 (Class 3: The value of percent of control at 10^−7 M was more than 60% or the value of IC50 was more than 200 nM.) |
| Cc1nc(N[C@H]2CC[C@@H](NCCOc3ccc(C(C)(C)C)cc3)CC2)cc(N(C)C)n1 [compound 400] | 3 (Class 3: The value of percent of control at 10^−7 M was more than 60% or the value of IC50 was more than 200 nM.) |
| CCCCCc1ccc(CN[C@H]2CC[C@@H](Nc3cc(N(C)C)nc(C)n3)CC2)cc1 [compound 397] | 3 (Class 3: The value of percent of control at 10^−7 M was more than 60% or the value of IC50 was more than 200 nM.) |
| Cc1nc(N[C@H]2CC[C@@H](NC(=O)c3ccccc3-c3ccc(C(F)(F)F)cc3)CC2)cc(N(C)C)n1 [compound 307] | 3 (Class 3: The value of percent of control at 10^−7 M was more than 60% or the value of IC50 was more than 200 nM.) |
| COc1ccc2c(c1)C(CC(=O)N[C@H]1CC[C@@H](Nc3cc(N(C)C)nc(C)n3)CC1)CC2=O (relative stereo) [compound 290] | 3 (Class 3: The value of percent of control at 10^−7 M was more than 60% or the value of IC50 was more than 200 nM.) |
| Cc1nc(N[C@H]2CC[C@@H](NCc3ccc(OC(F)(F)F)cc3)CC2)cc(N(C)C)n1 [compound 393] | 3 (Class 3: The value of percent of control at 10^−7 M was more than 60% or the value of IC50 was more than 200 nM.) |
| Cc1nc(N[C@H]2CC[C@@H](NC(=O)CSc3ccccc3)CC2)cc(N(C)C)n1 [compound 246] | 3 (Class 3: The value of percent of control at 10^−7 M was more than 60% or the value of IC50 was more than 200 nM.) |
| Cc1nc(N[C@H]2CC[C@@H](NC(=O)/C=C/c3ccc(OC(F)(F)F)cc3)CC2)cc(N(C)C)n1 [compound 269] | 3 (Class 3: The value of percent of control at 10^−7 M was more than 60% or the value of IC50 was more than 200 nM.) |
| Cc1nc(N[C@H]2CC[C@@H](NC(=O)COc3cccc4c(C)cc(=O)oc34)CC2)cc(N(C)C)n1 [compound 273] | 3 (Class 3: The value of percent of control at 10^−7 M was more than 60% or the value of IC50 was more than 200 nM.) |
| Cc1nc(N[C@H]2CC[C@@H](NC(=O)NCc3ccc(F)cc3)CC2)cc(N(C)C)n1 [compound 413] | 3 (Class 3: The value of percent of control at 10^−7 M was more than 60% or the value of IC50 was more than 200 nM.) |
| Cc1nc(N[C@H]2CC[C@@H](NCCc3ccc(F)cc3)CC2)cc(N(C)C)n1 [compound 395] | 3 (Class 3: The value of percent of control at 10^−7 M was more than 60% or the value of IC50 was more than 200 nM.) |
| Cc1nc(N[C@H]2CC[C@@H](NCC3CC3)CC2)cc(N(C)C)n1 [compound 362] | 3 (Class 3: The value of percent of control at 10^−7 M was more than 60% or the value of IC50 was more than 200 nM.) |
| Cc1nc(N[C@H]2CC[C@@H](NC(=O)Cc3ccccc3I)CC2)cc(N(C)C)n1 [compound 287] | 3 (Class 3: The value of percent of control at 10^−7 M was more than 60% or the value of IC50 was more than 200 nM.) |
| Cc1nc(N[C@H]2CC[C@@H](NC(=O)c3ccccc3COc3ccccc3)CC2)cc(N(C)C)n1 [compound 331, N-(cis-4-{[6-(dimethylamino)-2-methylpyrimidin-4-yl]amino}cyclohexyl)-[(2-phenyloxy)methyl]benzamide] | 3 (Class 3: The value of percent of control at 10^−7 M was more than 60% or the value of IC50 was more than 200 nM.) |
| COC(=O)c1ccccc1S(=O)(=O)N[C@H]1CC[C@@H](Nc2cc(N(C)C)nc(C)n2)CC1 [compound 481] | 3 (Class 3: The value of percent of control at 10^−7 M was more than 60% or the value of IC50 was more than 200 nM.) |
| COc1cc(OC)c(NC(=O)N[C@H]2CC[C@@H](Nc3cc(N(C)C)nc(C)n3)CC2)cc1Cl [compound 426, N-(5-chloro-2,4-dimethoxyphenyl)-N′-(cis-4-{[6-(dimethylamino)-2-methylpyrimidin-4-yl]amino}cyclohexyl)urea] | 2 (Class 2: The value of percent of control at 10^−7 M was from 40% to 60% or the value of IC50 was from 50 nM to 200 nM.) |
| Cc1nc(N[C@H]2CC[C@@H](NC(=O)c3cn(S(=O)(=O)c4ccccc4)c4ccccc34)CC2)cc(N(C)C)n1 [compound 348] | 3 (Class 3: The value of percent of control at 10^−7 M was more than 60% or the value of IC50 was more than 200 nM.) |
| Cc1nc(N[C@H]2CC[C@@H](NC(=O)OCC3c4ccccc4-c4ccccc43)CC2)cc(N(C)C)n1 [compound 469] | 3 (Class 3: The value of percent of control at 10^−7 M was more than 60% or the value of IC50 was more than 200 nM.) |
| Cc1nc(N[C@H]2CC[C@@H](NS(=O)(=O)c3cccc(C#N)c3)CC2)cc(N(C)C)n1 [compound 499] | 3 (Class 3: The value of percent of control at 10^−7 M was more than 60% or the value of IC50 was more than 200 nM.) |
